# Values quoted from earlier work as cited in patent publication US12394803B2, “Production method of catalyst, catalyst, production method of composition, composition, electrode, manufacturing method of electrode, fuel cell, metal-air battery” (Azul Energy Inc., priority 2019, dated 2025).
# Conditions: background statement on Patent Document 1
compound,measurement,value
"[Fe+2].c1ccc2c(c1)-c1nc-2nc2[n-]c(nc3nc(nc4[n-]c(n1)c1ccccc41)-c1ccccc1-3)c1ccccc21 [Iron phthalocyanines, Iron phthalocyanine]",Solubility in 2-propanol,low solubility
